From patent US20240390471A1, “COMPOUNDS AND ADJUVANT FORMULATIONS USEFUL IN PNEUMOCOCCAL VACCINES” (Merck Sharp & Dohme LLC, priority 2023, published 2024)

Columns and labels:
[1] = test system: S. pneumoniae serotypes of PCV13; conditions: PCV13 plus 3M-052 compared to PCV13 alone; cited from earlier work
[2] = target: T1, human TLR7 (Homo sapiens, UniProt Q9NYK1); assay: Cell-based TLR 7/8 assay, HEK-Blue TLR7 cells (SEAP reporter); conditions: based on Compound concentration only; Compounds formulated as SNEs; read-out: huTLR7 EC50 (converted)
T1 construct: host or cells: HEK-Blue 293 cells expressing human TLR7
T1 sequence (Q9NYK1 27-1049): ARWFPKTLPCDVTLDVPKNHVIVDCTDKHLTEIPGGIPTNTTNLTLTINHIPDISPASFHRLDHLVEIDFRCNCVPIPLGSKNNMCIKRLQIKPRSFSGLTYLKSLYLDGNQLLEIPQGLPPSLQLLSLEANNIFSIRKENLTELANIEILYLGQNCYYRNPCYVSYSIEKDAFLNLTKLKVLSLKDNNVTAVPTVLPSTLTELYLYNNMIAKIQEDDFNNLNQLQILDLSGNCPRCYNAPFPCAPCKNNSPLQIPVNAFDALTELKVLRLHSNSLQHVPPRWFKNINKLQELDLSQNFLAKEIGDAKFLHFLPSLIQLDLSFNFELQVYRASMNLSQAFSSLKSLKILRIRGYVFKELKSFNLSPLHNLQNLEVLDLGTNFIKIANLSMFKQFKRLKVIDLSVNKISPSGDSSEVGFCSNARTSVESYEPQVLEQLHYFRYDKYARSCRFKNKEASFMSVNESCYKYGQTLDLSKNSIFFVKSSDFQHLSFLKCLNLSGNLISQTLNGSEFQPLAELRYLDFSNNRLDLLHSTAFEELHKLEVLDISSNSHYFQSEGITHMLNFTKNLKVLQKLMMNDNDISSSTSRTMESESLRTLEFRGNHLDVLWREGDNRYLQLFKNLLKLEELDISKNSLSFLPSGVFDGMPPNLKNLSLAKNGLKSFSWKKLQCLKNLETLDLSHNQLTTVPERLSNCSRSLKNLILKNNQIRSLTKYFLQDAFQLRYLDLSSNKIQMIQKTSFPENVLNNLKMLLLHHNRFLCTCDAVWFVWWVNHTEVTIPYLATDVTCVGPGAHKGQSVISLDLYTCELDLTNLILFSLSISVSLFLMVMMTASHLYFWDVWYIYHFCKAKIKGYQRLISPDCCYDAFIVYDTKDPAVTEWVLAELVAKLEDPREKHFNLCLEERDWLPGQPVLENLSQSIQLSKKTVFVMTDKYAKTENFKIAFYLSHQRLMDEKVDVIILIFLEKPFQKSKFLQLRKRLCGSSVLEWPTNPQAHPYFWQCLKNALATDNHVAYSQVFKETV
Description: (§1) HEK-Blue™ TLR7 and TLR8 cells (InvivoGen) were designed to assess the stimulation of TLR7 and TLR8 by monitoring the activation of NF-κB and AP-1. Compound B-1-SNE samples were diluted 1:2 across an 8-point titration in diluent buffer histidine/PS-20 in a sterile V-bottom plate. 20 μL of samples were transferred to corresponding wells of two flat bottom assay plates. Media was aspirated from HEK-Blue™ human TLR 7 and TLR 8 cells (T-75 flasks) and gently rinsed with pre-warmed (37° C.) DPBS for a total volume of 5 mL/flask. The DPBS was gently removed from the cells and cells were gently manually dislodged and resuspended in 2 mL of DPBS. Cell assay suspensions were then prepared at approximately 2.2×10^5 cells per mL of HEK-Blue™ detection medium (InvivoGen). 180 μL of cell suspension in detection medium was added to each well of the two flat bottom assay plates containing the diluted Compound B-1-SNE samples for a final dilution of sample equaling 1:10 (180 μL of cell suspension in detection medium and 20 μL of sample). The cells were then incubated at 37° C. in 5% CO2 for 20 hrs. The reporter gene, NF-Kb, induces the production of secreted embryonic alkaline phosphatase (SEAP) when stimulated and can be monitored using the vendor supplied SEAP detection kit. SEAP colorimetric changes were read at an absorbance of 640 nm using a SpectroMax Stakmax plate reader. […] EC50 values were calculated based on total Compound B-1-SNE concentration using GraphPad Prism Software and analyzed using agonist vs. response variable slope (four parameters) least squares fit.
(§2) Further to the description in Example 10, a cell-based activation system was used to assess activity of the Compound-formulated nanoemulsion systems, prepared as described in examples, supra. HEK-Blue™ TLR7 and TLR8 cells (InvivoGen) were designed to assess the stimulation of TLR7 and TLR8 by monitoring the activation of NF-κB and AP-1. Compound-SNE samples were diluted 1:2 across an 8-point titration in diluent buffer histidine/PS-20 in a sterile V-bottom plate. 20 μL of samples were transferred to corresponding wells of two flat bottom assay plates. Media was aspirated from HEK-Blue™ human TLR 7 and TLR 8 cells (T-75 flasks) and gently rinsed with pre-warmed (37° C.) DPBS for a total volume of 5 mL/flask. The DPBS was gently removed from the cells and cells were gently manually dislodged and resuspended in 2 mL of DPBS. Cell assay suspensions were then prepared at approximately 2.2×10^5 cells per mL of HEK-Blue™ detection medium (InvivoGen). 180 μL of cell suspension in detection medium was added to each well of the two flat bottom assay plates containing the diluted Compound-SNE samples for a final dilution of sample equaling 1:10 (180 μL of cell suspension in detection medium and 20 μL of sample). The cells were then incubated at 37° C. in 5% CO2 for 20 hrs. The reporter gene, NF-Kb, induces the production of secreted embryonic alkaline phosphatase (SLAP) when stimulated and can be monitored using the vendor supplied SLAP detection kit. SLAP colorimetric changes were read at an absorbance of 640 nm using a SpectroMax Stakmax plate reader. EC50s were calculated based on Compound concentration only, not total Compound-SNE concentration (Table 6) using GraphPad Prism Software and analyzed using agonist vs. response variable slope (four parameters) least squares fit.

[3] = target: T2, human TLR8 (Homo sapiens, UniProt Q9NR97); assay: Cell-based TLR 7/8 assay, HEK-Blue TLR8 cells (SEAP reporter); conditions: based on Compound concentration only; Compounds formulated as SNEs; read-out: huTLR8 EC50 (converted)
T2 construct: host or cells: HEK-Blue 293 cells expressing human TLR8
T2 sequence (Q9NR97 27-1041): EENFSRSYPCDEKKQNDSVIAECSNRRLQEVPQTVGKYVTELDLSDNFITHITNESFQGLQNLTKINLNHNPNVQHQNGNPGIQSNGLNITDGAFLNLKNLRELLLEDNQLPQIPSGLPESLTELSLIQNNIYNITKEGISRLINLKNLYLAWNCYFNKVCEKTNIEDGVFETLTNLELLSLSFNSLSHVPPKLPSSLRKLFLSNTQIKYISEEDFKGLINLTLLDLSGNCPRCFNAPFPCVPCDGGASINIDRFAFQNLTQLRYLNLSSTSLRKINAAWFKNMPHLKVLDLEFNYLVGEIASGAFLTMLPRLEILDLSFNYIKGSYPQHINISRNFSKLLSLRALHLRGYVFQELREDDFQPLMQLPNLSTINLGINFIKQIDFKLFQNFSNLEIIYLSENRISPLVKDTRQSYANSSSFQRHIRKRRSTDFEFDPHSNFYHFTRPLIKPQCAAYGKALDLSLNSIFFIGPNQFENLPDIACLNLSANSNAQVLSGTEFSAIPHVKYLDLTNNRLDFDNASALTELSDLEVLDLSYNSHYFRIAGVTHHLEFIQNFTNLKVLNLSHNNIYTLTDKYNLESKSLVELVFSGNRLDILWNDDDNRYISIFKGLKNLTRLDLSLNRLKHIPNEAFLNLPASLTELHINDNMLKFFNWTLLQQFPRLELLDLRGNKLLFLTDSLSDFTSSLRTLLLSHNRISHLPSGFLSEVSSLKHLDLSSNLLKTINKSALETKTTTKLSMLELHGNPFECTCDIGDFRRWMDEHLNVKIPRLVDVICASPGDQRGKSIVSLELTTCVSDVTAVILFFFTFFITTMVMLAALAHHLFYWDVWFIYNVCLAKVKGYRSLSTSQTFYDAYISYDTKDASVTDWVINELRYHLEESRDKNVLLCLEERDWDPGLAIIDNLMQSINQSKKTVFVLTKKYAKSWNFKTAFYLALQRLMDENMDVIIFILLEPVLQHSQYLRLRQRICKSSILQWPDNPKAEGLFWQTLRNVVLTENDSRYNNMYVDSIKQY
Description: as §1, §2

SMILES | serotype specific antibody responses (binding titers and opsonophagocytic killing) [1] | EC50 [2] | EC50 [3]
CCCCCCCCCCCCCCCCCC(=O)NCCCCOn1c(CCCC)nc2c(N)nc3ccccc3c21 [Compound 3M-052] | accelerated and enhanced serotype specific antibody responses | – | –
CCCCCCCCCCCCCCCCCC(=O)NCCCNC(=O)N1CCN(c2ccc(Cn3cc4nc(N)nc(NCCCC)c4n3)c(OC)c2)CC1 [Compound D-2, 4-(4-((5-amino-7-(butylamino)-2H-pyrazolo[4,3-d]pyrimidin-2-yl)methyl)-3-methoxyphenyl)-N-(3-stearamidopropyl)piperazine-1-carboxamide] | – | 17.7 µM | 5.82 µM
CCCCCCCCCCCCCCCCCC(=O)NCCCOC(=O)N1CCN(c2ccc(Cn3cc4nc(N)nc(NCCCC)c4n3)c(OC)c2)CC1 [Compound D-3, 3-stearamidopropyl 4-(4-((5-amino-7-(butylamino)-2H-pyrazolo[4,3-d]pyrimidin-2-yl)methyl)-3-methoxyphenyl)piperazine-1-carboxylate] | – | 23.7 µM | 13.8 µM
